# Results taken from patent publication EP4737454A1, “GLP-1 RECEPTOR AGONIST, AND PREPARATION METHOD THEREFOR AND USE THEREOF” (Wayne Biotechnology Co., Ltd., priority 2023, dated 2025).
# pEC50: −log10 of the molar value.
# Target: Human GLP-1R (Homo sapiens, UniProt P43220)
# Assay: cAMP level determination in human GLP-1R stably transfected HEK293T cells (HTRF cAMP kit)
# Format: cell-based
# Conditions: 37°C 30 min
# Protocol: Human GLP-1R HEK293T stably transfected cells were digested with trypsin, terminated with DMEM total (without p/s), centrifuged and washed twice with 1X Stimulation buffer, then resuspended in 1X stimulation buffer and counted. The cells were then prepared as a 1 Million/mL cell suspension in stimulation buffer. Compound powder was first prepared as a 10 mM stock solution in DMSO, then diluted to 2 mM with DMSO, and further prepared as 2X compound in 1X stimulation buffer (Cisbio kit buffer with freshly added IBMX at a final concentration of 0.5 mM). The top dose final concentration was 2000 nM, with a final DMSO concentration of 0.2%, diluted in a 1:3 gradient for 11 gradients.
# According to the layout, 5 µl of compound was added to each well; Min wells contained 100 nM GLP-1, and Max wells contained 0.2% DMSO in 1X stimulation buffer. 5 µl of cell suspension was added to each well, centrifuged at 300 rpm at room temperature for 1 min, then incubated at 37°C for 30 min. 2X cAMP standards were prepared in 1X Stimulation buffer, with a top final concentration of 2.8 µM, diluted in a 1:3 gradient for 12 doses. According to the layout, 10 µl was added to each well. Finally, d2 and antibody were diluted 20-fold in 1X Detection buffer (Cisbio kit buffer), and 5 µl of each was added to each well according to the layout. After centrifugation at 300 rpm at room temperature for 1 min, the plate was incubated at room temperature for 2 hr.
# Stimulation% was calculated based on Min and Max readings (665nm/615nm ratio) using the formula: 100*(ratio Max well - ratio test well)/(ratio Max well - ratio Min well). The cAMP concentration in each test well was derived from the cAMP standard curve, and the data was analyzed using GraphPad Prism 9 to plot four-parameter fit curves and calculate EC50 values using the formula: Y=Bottom + (Top-Bottom)/(1+10^((LogEC50-X)*HillSlope)). Table 1: cAMP Level Determination in Human GLP-1R Stably Transfected HEK293T Cells
# Chain of Human GLP-1R (P43220 24-463): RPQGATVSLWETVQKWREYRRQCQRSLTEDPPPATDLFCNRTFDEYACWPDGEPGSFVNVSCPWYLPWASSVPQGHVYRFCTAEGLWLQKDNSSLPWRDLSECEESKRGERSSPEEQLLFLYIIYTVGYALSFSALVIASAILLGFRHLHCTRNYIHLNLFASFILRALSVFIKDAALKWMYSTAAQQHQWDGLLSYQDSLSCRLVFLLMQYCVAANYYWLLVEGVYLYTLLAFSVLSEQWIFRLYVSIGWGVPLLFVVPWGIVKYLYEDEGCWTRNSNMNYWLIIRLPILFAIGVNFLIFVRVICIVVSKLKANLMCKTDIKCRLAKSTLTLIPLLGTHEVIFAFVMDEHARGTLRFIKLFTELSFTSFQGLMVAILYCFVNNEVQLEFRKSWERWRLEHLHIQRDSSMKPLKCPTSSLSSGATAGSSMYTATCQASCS
row,SMILES,pEC50
1,Cc1cc(-n2nc3c(c2-n2ccn(-c4ccc(N(C)C5CC5)c(Cl)c4)c2=O)[C@H](C)N(C(=O)c2cc4cc([C@@H]5CCOC(C)(C)C5)ccc4n2[C@@]2(c4noc(=O)[nH]4)C[C@@H]2C)CC3)cc(C)c1F [Compound 67a],7.29
2,Cc1cc(-n2nc3c(c2-n2ccn(-c4ccc(C(=O)N(C)C5CC5)c(C(F)(F)F)c4)c2=O)[C@H](C)N(C(=O)c2cc4cc([C@H]5CCOC(C)(C)C5)ccc4n2[C@@]2(c4nc(=O)o[nH]4)C[C@@H]2C)CC3)cc(C)c1F [Compound 6],8.29
3,Cc1cc(-n2nc3c(c2-n2ccn(-c4ccc(C#N)cn4)c2=O)[C@H](C)N(C(=O)c2cc4cc(C5CCOC(C)(C)C5)ccc4n2[C@@]2(c4nc(=O)o[nH]4)C[C@@H]2C)CC3)cc(C)c1F (stereo partly shown) [Compound 85],7.30
4,Cc1cc(-n2nc3c(c2-n2ccn(-c4ccc(N(C)C(=O)C5CC5)c(C(F)(F)F)c4)c2=O)[C@H](C)N(C(=O)c2cc4cc([C@H]5CCOC(C)(C)C5)ccc4n2[C@@]2(c4nc(=O)o[nH]4)C[C@@H]2C)CC3)cc(C)c1F [Compound 74],8.49
5,Cc1cc(-n2nc3c(c2-n2ccn(-c4ccc(C(=O)N5CCC5)c(F)c4)c2=O)[C@H](C)N(C(=O)c2cc4cc(C5CCOC(C)(C)C5)ccc4n2[C@@]2(c4nc(=O)o[nH]4)C[C@@H]2C)CC3)cc(C)c1F (stereo partly shown) [Compound 53],7.59
6,Cc1cc(-n2nc3c(c2-n2ccn(-c4ccc(N(C)C(=O)C5CC5)c(Cl)c4)c2=O)[C@H](C)N(C(=O)c2cc4cc([C@H]5CCOC(C)(C)C5)ccc4n2[C@@]2(c4noc(=O)[nH]4)C[C@@H]2C)CC3)cc(C)c1F [Compound 70],8.45
7,Cc1cc(-n2nc3c(c2-n2ccn(-c4ccc(N(C)C(=O)C5CC5)c(F)c4)c2=O)[C@H](C)N(C(=O)c2cc4cc([C@@H]5CCOC(C)(C)C5)ccc4n2[C@@]2(c4noc(=O)[nH]4)C[C@@H]2C)CC3)cc(C)c1F [Compound 63a],6.84
8,Cc1cc(-n2nc3c(c2-n2ccn(-c4ccc5c(c4)CCCS5(=O)=O)c2=O)[C@H](C)N(C(=O)c2cc4cc(C5CCOC(C)(C)C5)ccc4n2[C@@]2(c4nc(=O)o[nH]4)C[C@@H]2C)CC3)cc(C)c1F (stereo partly shown) [Compound 58],8.00
9,Cc1cc(-n2nc3c(c2-n2ccn(-c4ccc(C(=O)N(C)C5CC5)c(C)c4F)c2=O)[C@H](C)N(C(=O)c2cc4cc([C@H]5CCOC(C)(C)C5)ccc4n2[C@@]2(c4nc(=O)o[nH]4)C[C@@H]2C)CC3)cc(C)c1F [Compound 17],8.05
10,Cc1cc(-n2nc3c(c2-n2ccn(-c4c(F)cccc4C(=O)N(C)C4CC4)c2=O)[C@H](C)N(C(=O)c2cc4cc(C5CCOC(C)(C)C5)ccc4n2[C@@]2(c4nc(=O)o[nH]4)C[C@@H]2C)CC3)cc(C)c1F (stereo partly shown) [Compound 40],6.81
11,Cc1cc(-n2nc3c(c2-n2ccn(-c4ccc(C(=O)N(C(C)C)C5CC5)cc4)c2=O)[C@H](C)N(C(=O)c2cc4cc(C5CCOC(C)(C)C5)ccc4n2[C@@]2(c4nc(=O)o[nH]4)C[C@@H]2C)CC3)cc(C)c1F (stereo partly shown) [Compound 25],7.93
12,Cc1cc(-n2ccn(-c3c4c(nn3-c3cc(C)c(F)c(C)c3)CCN(C(=O)c3cc5cc(C6CCOC(C)(C)C6)ccc5n3[C@@]3(c5nc(=O)o[nH]5)C[C@@H]3C)[C@H]4C)c2=O)ccc1C(=O)N(C)C1(C)CC1 (stereo partly shown) [Compound 35],7.70
13,Cc1cc(-n2nc3c(c2-n2ccn(-c4ccc(C(=O)N(C)C5(C)CC5)c(F)c4)c2=O)[C@H](C)N(C(=O)c2cc4cc(C5CCOC(C)(C)C5)ccc4n2[C@@]2(c4nc(=O)o[nH]4)C[C@@H]2C)CC3)cc(C)c1F (stereo partly shown) [Compound 51],8.06
14,Cc1cc(-n2nc3c(c2-n2ccn(-c4ccc5c(c4)S(=O)(=O)CCC5)c2=O)[C@H](C)N(C(=O)c2cc4cc(C5CCOC(C)(C)C5)ccc4n2[C@@]2(c4nc(=O)o[nH]4)C[C@@H]2C)CC3)cc(C)c1F (stereo partly shown) [Compound 59],7.82
15,Cc1cc(-n2nc3c(c2-n2ccn(-c4ccc5c(c4)C=CS5(=O)=O)c2=O)[C@H](C)N(C(=O)c2cc4cc(C5CCOC(C)(C)C5)ccc4n2[C@@]2(c4noc(=O)[nH]4)C[C@@H]2C)CC3)cc(C)c1F (stereo partly shown) [Compound 62],7.87
16,Cc1cc(-n2nc3c(c2-n2ccn(-c4ccc(C#N)c(C(F)(F)F)c4)c2=O)[C@H](C)N(C(=O)c2cc4cc(C5CCOC(C)(C)C5)ccc4n2[C@@]2(c4nc(=O)o[nH]4)C[C@@H]2C)CC3)cc(C)c1F (stereo partly shown) [Compound 86],7.86
17,Cc1cc(-n2nc3c(c2-n2ccn(-c4ccc5c(c4)CCS5(=O)=O)c2=O)[C@H](C)N(C(=O)c2cc4cc([C@@H]5CCOC(C)(C)C5)ccc4n2[C@@]2(c4nc(=O)o[nH]4)C[C@@H]2C)CC3)cc(C)c1F [Compound 56a],6.62

row,SMILES,pEC50
1,Cc1cc(-n2ccn(-c3c4c(nn3-c3cc(C)c(F)c(C)c3)CCN(C(=O)c3cc5cc(C6CCOC(C)(C)C6)ccc5n3[C@@]3(c5nc(=O)o[nH]5)C[C@@H]3C)[C@H]4C)c2=O)ccc1C#N (stereo partly shown) [Compound 87],7.75
2,Cc1cc(-n2nc3c(c2-n2ccn(-c4ccc(C#N)cc4F)c2=O)[C@H](C)N(C(=O)c2cc4cc([C@H]5CCOC(C)(C)C5)ccc4n2[C@@]2(c4nc(=O)o[nH]4)C[C@@H]2C)CC3)cc(C)c1F [Compound 81b],8.41
3,Cc1cc(-n2nc3c(c2-n2ccn(-c4ccc(N(C)C5CC5)c(OC(F)(F)F)c4)c2=O)[C@H](C)N(C(=O)c2cc4cc(C5CCOC(C)(C)C5)ccc4n2[C@@]2(c4noc(=O)[nH]4)C[C@@H]2C)CC3)cc(C)c1F (stereo partly shown) [Compound 66],7.17
4,Cc1cc(-n2nc3c(c2-n2ccn(-c4ccc5c(c4)C=CS5(=O)=O)c2=O)[C@H](C)N(C(=O)c2cc4cc([C@H]5CCOC(C)(C)C5)ccc4n2[C@@]2(c4noc(=O)[nH]4)C[C@@H]2C)CC3)cc(C)c1F [Compound 62b],8.34
5,Cc1cc(-n2nc3c(c2-n2ccn(-c4ccc(C(=O)N(C)C5(C)CC5)c(OC(F)(F)F)c4)c2=O)[C@H](C)N(C(=O)c2cc4cc(C5CCOC(C)(C)C5)ccc4n2[C@@]2(c4nc(=O)o[nH]4)C[C@@H]2C)CC3)cc(C)c1F (stereo partly shown) [Compound 34],8.13
6,Cc1cc(-n2nc3c(c2-n2ccn(-c4cccc(C(=O)N(C)C5CC5)c4)c2=O)[C@H](C)N(C(=O)c2cc4cc(C5CCOC(C)(C)C5)ccc4n2[C@@]2(c4nc(=O)o[nH]4)C[C@@H]2C)CC3)cc(C)c1F (stereo partly shown) [Compound 45],7.39
7,Cc1cc(-n2nc3c(c2-n2ccn(-c4cc(F)c(C(=O)N(C)C5CC5)c(F)c4)c2=O)[C@H](C)N(C(=O)c2cc4cc(C5CCOC(C)(C)C5)ccc4n2[C@@]2(c4nc(=O)o[nH]4)C[C@@H]2C)CC3)cc(C)c1F (stereo partly shown) [Compound 52],7.96
8,Cc1cc(-n2nc3c(c2-n2ccn(-c4ccc(C#N)c(F)c4)c2=O)[C@H](C)N(C(=O)c2cc4cc([C@@H]5CCOC(C)(C)C5)ccc4n2[C@@]2(c4nc(=O)o[nH]4)C[C@@H]2C)CC3)cc(C)c1F [Compound 82a],6.34
9,Cc1cc(-n2nc3c(c2-n2ccn(-c4ccc(N(C)C5CC5)c(F)c4)c2=O)[C@H](C)N(C(=O)c2cc4cc(C5CCOC(C)(C)C5)ccc4n2[C@@]2(c4noc(=O)[nH]4)C[C@@H]2C)CC3)cc(C)c1F (stereo partly shown) [Compound 68],7.75
10,Cc1cc(-n2nc3c(c2-n2ccn(-c4ccccc4C(=O)N(C)C4CC4)c2=O)[C@H](C)N(C(=O)c2cc4cc(C5CCOC(C)(C)C5)ccc4n2[C@@]2(c4nc(=O)o[nH]4)C[C@@H]2C)CC3)cc(C)c1F (stereo partly shown) [Compound 39],7.95
11,Cc1cc(-n2nc3c(c2-n2ccn(-c4ccc(N(C)C(=O)C5CC5)c(Cl)c4F)c2=O)[C@H](C)N(C(=O)c2cc4cc([C@H]5CCOC(C)(C)C5)ccc4n2[C@@]2(c4nc(=O)o[nH]4)C[C@@H]2C)CC3)cc(C)c1F [Compound 73],8.20
12,Cc1cc(-n2nc3c(c2-n2ccn(-c4ccc5c(c4)S(=O)(=O)CC5)c2=O)[C@H](C)N(C(=O)c2cc4cc(C5CCOC(C)(C)C5)ccc4n2[C@@]2(c4nc(=O)o[nH]4)C[C@@H]2C)CC3)cc(C)c1F (stereo partly shown) [Compound 57],7.80
13,Cc1cc(-n2ccn(-c3c4c(nn3-c3cc(C)c(F)c(C)c3)CCN(C(=O)c3cc5cc([C@H]6CCOC(C)(C)C6)ccc5n3[C@@]3(c5nc(=O)o[nH]5)C[C@@H]3C)[C@H]4C)c2=O)ccc1C(=O)N(C)C1CC1 [Compound 50],7.94
14,Cc1cc(-n2nc3c(c2-n2ccn(-c4cc(F)c(C(=O)N(C)C5CC5)cc4F)c2=O)C(C)N(C(=O)c2cc4cc(C5CCOC(C)(C)C5)ccc4n2C2(c4nc(=O)o[nH]4)CC2C)CC3)cc(C)c1F (stereo not shown) [Compound 26],7.94
15,Cc1cc(-n2nc3c(c2-n2ccn(-c4ccc(C#N)c(F)c4F)c2=O)[C@H](C)N(C(=O)c2cc4cc(C5CCOC(C)(C)C5)ccc4n2[C@@]2(c4nc(=O)o[nH]4)C[C@@H]2C)CC3)cc(C)c1F (stereo partly shown) [Compound 93],7.82
16,Cc1cc(-n2nc3c(c2-n2ccn(-c4ccc(C(F)(F)F)c(C#N)c4)c2=O)[C@H](C)N(C(=O)c2cc4cc(C5CCOC(C)(C)C5)ccc4n2[C@@]2(c4nc(=O)o[nH]4)C[C@@H]2C)CC3)cc(C)c1F (stereo partly shown) [Compound 84],8.01
17,Cc1cc(-n2nc3c(c2-n2ccn(-c4ccc(C(=O)N(C)C5(C#N)CC5)c(F)c4)c2=O)[C@H](C)N(C(=O)c2cc4cc(C5CCOC(C)(C)C5)ccc4n2[C@@]2(c4nc(=O)o[nH]4)C[C@@H]2C)CC3)cc(C)c1F (stereo partly shown) [Compound 23],7.86
